Reference: patent US9169254B2, “Spiroimidazolone derivative” (Chugai Seiyaku Kabushiki Kaisha, priority 2009, dated 2015)

Target: T1, human PTH1 receptor (Homo sapiens, UniProt Q03431)
T1 sequence (Q03431 27-593): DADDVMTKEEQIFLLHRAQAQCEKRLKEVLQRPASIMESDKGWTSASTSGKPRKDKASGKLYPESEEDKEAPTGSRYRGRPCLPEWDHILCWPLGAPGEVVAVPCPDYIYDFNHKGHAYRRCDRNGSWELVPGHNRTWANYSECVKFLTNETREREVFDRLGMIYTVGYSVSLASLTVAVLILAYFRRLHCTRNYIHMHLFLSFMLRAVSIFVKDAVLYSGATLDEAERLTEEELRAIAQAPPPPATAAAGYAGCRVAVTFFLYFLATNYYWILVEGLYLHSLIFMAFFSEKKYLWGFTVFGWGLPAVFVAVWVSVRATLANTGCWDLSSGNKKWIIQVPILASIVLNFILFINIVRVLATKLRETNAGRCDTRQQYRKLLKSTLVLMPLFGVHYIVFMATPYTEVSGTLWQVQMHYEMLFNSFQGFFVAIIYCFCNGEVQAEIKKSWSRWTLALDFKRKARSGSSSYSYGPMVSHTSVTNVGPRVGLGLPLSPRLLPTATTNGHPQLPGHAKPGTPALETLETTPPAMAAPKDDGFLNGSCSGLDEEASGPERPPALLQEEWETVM
Test: In vitro cAMP signal activity in HKRK-B7 cells (LLC-PK1 cells overexpressing the human PTH1 receptor)
Assay type: cell-based
Details: HKRK-B7 cells; compound at 1×10^−3 M; cAMP produced as percentage of that produced by hPTH(1-34) at 100 nM

O=C1NC(C2CCCCC2)=NC12CCN(S(=O)(=O)/C=C/c1cccc3c1ccn3Cc1nccs1)CC2 [Compound 483, 2-cyclohexyl-8-[(E)-2-(1-thiazol-2-ylmethyl-1H-indol-4-yl)-ethenesulfonyl]-1,3,8-triaza-spiro[4.5]dec-1-en-4-one]
cAMP production activity (%): 41%

Cc1cc(C(=O)N2CC[C@H](O)C2)cc(C)c1/C=C/S(=O)(=O)N1CCC2(CC1)N=C(c1cccc(OC(F)(F)F)c1)NC2=O [Compound 402, 8-{(E)-2-[4-((S)-3-hydroxy-pyrrolidine-1-carbonyl)-2,6-dimethyl-phenyl]-ethenesulfonyl}-2-(3-trifluoromethoxy-phenyl)-1,3,8-triaza-spiro[4.5]dec-1-en-4-one]
cAMP production activity (%): 85%

Cc1cc(C(=O)N2CCC(CO)CC2)cc(C)c1CCS(=O)(=O)N1CCC2(CC1)N=C(c1cccc(OC(F)(F)F)c1)NC2=O [Compound 966, 8-{2-[4-(4-hydroxymethyl-piperidine-1-carbonyl)-2,6-dimethyl-phenyl]-ethanesulfonyl}-2-(3-trifluoromethoxy-phenyl)-1,3,8-triaza-spiro[4.5]dec-1-en-4-one]
cAMP production activity (%): 82%

Cc1cc(C(=O)N(C)C)ccc1CCS(=O)(=O)N1CCC2(CC1)N=C(c1cc(C(F)(F)F)ccc1Cl)NC2=O [Compound 85, 4-{2-[2-(2-chloro-5-trifluoromethyl-phenyl)-4-oxo-1,3,8-triaza-spiro[4.5]dec-1-ene-8-sulfonyl]-ethyl}-3,N,N-trimethyl-benzamide]
cAMP production activity (%): 76%

Cc1cc(OC[C@H](O)CO)cc(C)c1/C=C/S(=O)(=O)N1CCC2(CC1)N=C(C1CCC(CCC(F)(F)F)CC1)NC2=O (stereo partly drawn) [Compound 697, 8-{(E)-2-[4-((R)-2,3-Dihydroxy-propoxy)-2,6-dimethyl-phenyl]-ethenesulfonyl}-2-[4-(3,3,3-trifluoro-propyl)-cyclohexyl]-1,3,8-triaza-spiro[4.5]dec-1-en-4-one]
cAMP production activity (%): 60%

CC1CCCC(C2=NC3(CCN(S(=O)(=O)c4cccc(Cl)c4)CC3)C(=O)N2)C1 (stereo not drawn) [Compound 19, 8-(3-chloro-benzenesulfonyl)-2-(3-methyl-cyclohexyl)-1,3,8-triaza-spiro[4.5]dec-1-en-4-one]
cAMP production activity (%): 35%

CC(=O)N(CCO)c1cc(C)c(/C=C/S(=O)(=O)N2CCC3(CC2)N=C(c2ccc(F)c(C(F)(F)F)c2)NC3=O)c(C)c1 [Compound 718, N-(4-{(E)-2-[2-(4-Fluoro-3-trifluoromethyl-phenyl)-4-oxo-1,3,8-triaza-spiro[4.5]dec-1-ene-8-sulfonyl]-vinyl}-3,5-dimethyl-phenyl)-N-(2-hydroxy-ethyl)-acetamide]
cAMP production activity (%): 74%

CC(=O)Nc1ccc(CCS(=O)(=O)N2CCC3(CC2)N=C(C2CCC(C)CC2)NC3=O)c(OC(C)C)c1 (stereo not drawn) [Compound 812, N-(3-isopropoxy-4-{2-[2-(4-methyl-cyclohexyl)-4-oxo-1,3,8-triaza-spiro[4.5]dec-1-ene-8-sulfonyl]-ethyl}-phenyl)-acetamide]
cAMP production activity (%): 105%

[2H]C([2H])([2H])C([2H])([2H])C1=CC[C@H](C2=NC3(CCN([S@TB18](=O)(=O)/C=C/c4c(C)cc(N(C)C(N)=O)cc4C)CC3)C(=O)N2)CC1 [Compound 1129, 1-(4-{(E)-2-[2-(4-[1,1,2,2,2-^2H5]ethyl-cyclohex-3-enyl)-4-oxo-1,3,8-triaza-spiro[4.5]dec-1-ene-8-sulfonyl]-vinyl}-3,5-dimethyl-phenyl)-1-methyl-urea]
cAMP production activity (%): 102%

Cc1cc(CO)cc(C)c1CCS(=O)(=O)N1CCC2(CC1)N=C(C1CCC(CCC(F)(F)F)CC1)NC2=O (stereo not drawn) [Compound 770, 8-[2-(4-hydroxymethyl-2,6-dimethyl-phenyl)-ethanesulfonyl]-2-[4-(3,3,3-trifluoro-propyl)-cyclohexyl]-1,3,8-triaza-spiro[4.5]dec-1-en-4-one]
cAMP production activity (%): 105%

CC(=O)Nc1ccc(CCS(=O)(=O)N2CCC3(CC2)N=C(C24CC5CC(CC(C5)C2)C4)NC3=O)c(C)c1 [Compound 918, N-{4-[2-(2-adamantan-1-yl-4-oxo-1,3,8-triaza-spiro[4.5]dec-1-ene-8-sulfonyl)-ethyl]-3-methyl-phenyl}-acetamide]
cAMP production activity (%): 63%

Cc1cc(C(=O)N2CC[C@@H](N(C)C)C2)cc(C)c1/C=C/S(=O)(=O)N1CCC2(CC1)N=C(c1cccc(OC(F)(F)F)c1)NC2=O [Compound 399, 8-{(E)-2-[4-((R)-3-dimethylamino-pyrrolidine-1-carbonyl)-2,6-dimethyl-phenyl]-ethenesulfonyl}-2-(3-trifluoromethoxy-phenyl)-1,3,8-triaza-spiro[4.5]dec-1-en-4-one]
cAMP production activity (%): 64%

Nc1cccc(CCS(=O)(=O)N2CCC3(CC2)N=C(C2CCCCC2)NC3=O)c1 [Compound 166, 8-[2-(3-Amino-phenyl)-ethanesulfonyl]-2-cyclohexyl-1,3,8-triaza-spiro[4.5]dec-1-en-4-one]
cAMP production activity (%): 56%

CC(=O)Nc1ccc(CCS(=O)(=O)N2CCC3(CC2)N=C(C2CCC(C(F)(F)F)CC2)NC3=O)c(C)c1 (stereo not drawn) [Compound 904, N-(3-methyl-4-{2-[4-oxo-2-(4-trifluoromethyl-cyclohexyl)-1,3,8-triaza-spiro[4.5]dec-1-ene-8-sulfonyl]-ethyl}-phenyl)-acetamide]
cAMP production activity (%): 69%

CC(=O)N(CCOCCO)c1cc(C)c(/C=C/S(=O)(=O)N2CCC3(CC2)N=C(C2CCC(CCC(F)(F)F)CC2)NC3=O)c(C)c1 (stereo not drawn) [Compound 699, N-[3,5-Dimethyl-4-((E)-2-{4-oxo-2-[4-(3,3,3-trifluoro-propyl)-cyclohexyl]-1,3,8-triaza-spiro[4.5]dec-1-ene-8-sulfonyl}-vinyl)-phenyl]-N-[2-(2-hydroxy-ethoxy)-ethyl]-acetamide]
cAMP production activity (%): 101%

COCc1cc(NC(C)=O)ccc1CCS(=O)(=O)N1CCC2(CC1)N=C(C1CCC(C)CC1)NC2=O (stereo not drawn) [Compound 754, N-(3-methoxymethyl-4-{2-[2-(4-methyl-cyclohexyl)-4-oxo-1,3,8-triaza-spiro[4.5]dec-1-ene-8-sulfonyl]-ethyl}-phenyl)-acetamide]
cAMP production activity (%): 89%

Cc1cc(C(=O)N2CCC(C)(O)CC2)cc(C)c1/C=C/S(=O)(=O)N1CCC2(CC1)N=C(c1ccc3c(c1)OCO3)NC2=O [Compound 1194, 2-benzo[1,3]dioxol-5-yl-8-{(E)-2-[4-(4-hydroxy-4-methyl-piperidine-1-carbonyl)-2,6-dimethyl-phenyl]-ethenesulfonyl}-1,3,8-triaza-spiro[4.5]dec-1-en-4-one]
cAMP production activity (%): 62%

Cc1cc(NCC(=O)NCCN(C)C)ccc1CCS(=O)(=O)N1CCC2(CC1)N=C(c1cccc(OC(F)(F)F)c1)NC2=O [Compound 665, N-(2-Dimethylamino-ethyl)-2-(3-methyl-4-{2-[4-oxo-2-(3-trifluoromethoxy-phenyl)-1,3,8-triaza-spiro[4.5]dec-1-ene-8-sulfonyl]-ethyl}-phenylamino)-acetamide]
cAMP production activity (%): 54%

Cc1cc(S(N)(=O)=O)ccc1CCS(=O)(=O)N1CCC2(CC1)N=C(c1cccc(C(F)(F)F)c1)NC2=O [Compound 291, 3-methyl-4-{2-[4-oxo-2-(3-trifluoromethyl-phenyl)-1,3,8-triaza-spiro[4.5]dec-1-ene-8-sulfonyl]-ethyl}-benzenesulfonamide]
cAMP production activity (%): 66%

O=C1NC(c2cccc(C(F)(F)F)c2)=NC12CCN(S(=O)(=O)c1ccc3ccccc3c1)CC2 [Compound 67, 8-(naphthalene-2-sulfonyl)-2-(3-trifluoromethyl-phenyl)-1,3,8-triaza-spiro[4.5]dec-1-en-4-one]
cAMP production activity (%): 53%

Cc1cc(N(C)C(N)=O)cc(C)c1CCS(=O)(=O)N1CCC2(CC1)N=C(CCCCCCCCC1(C)COC1)NC2=O [Compound 1031, 1-[3,5-Dimethyl-4-(2-{2-[8-(3-methyl-oxetan-3-yl)-octyl]-4-oxo-1,3,8-triaza-spiro[4.5]dec-1-ene-8-sulfonyl}-ethyl)-phenyl]-1-methyl-urea]
cAMP production activity (%): 111%

Cc1cc(N(C)C(=O)C(F)(F)F)cc(C)c1CCS(=O)(=O)N1CCC2(CC1)N=C([C@H]1CC[C@H](C)CC1)NC2=O [Compound 931, N-(3,5-Dimethyl-4-{2-[2-(4-methyl-cyclohexyl)-4-oxo-1,3,8-triaza-spiro[4.5]dec-1-ene-8-sulfonyl]-ethyl}-phenyl)-2,2,2-trifluoro-N-methyl-acetamide]
cAMP production activity (%): 72%

O=C1NC(c2cccc(C(F)(F)F)c2)=NC12CCN(S(=O)(=O)c1ccc(Br)s1)CC2 [Compound 69, 8-(5-bromo-thiophene-2-sulfonyl)-2-(3-trifluoromethyl-phenyl)-1,3,8-triaza-spiro[4.5]dec-1-en-4-one]
cAMP production activity (%): 61%

Cc1cc2cc(C)c1CCS(=O)(=O)N1CCC3(CC1)N=C(CCCCCCCCCCC(=O)N2C)NC3=O [Compound 1448]
cAMP production activity (%): 9.4%
